Source: patent US8904703B2, “Herbicide method and apparatus” (priority 2011, dated 2014)

Columns and labels:
surrounding plant life = assay: Field trials: effect of the Kudzu vine treatment on surrounding plant life; assay type: in vivo; details: observed through growth of new grass and new leaf growth
Text: (§1) In operation, the chuck on a battery powered drill (not shown in the drawing) connects the drill to the drill shank 23. The tube 10 is placed near a Kudzu vine stem as that stem protrudes above the earth with the longitudinal tube axis 17 of the tube 10 generally perpendicular to the surface of earth 35 to press drill bit 11 against the soil. Preferably a 1.6 cm diameter black oxide coated drill bit is suitable for this purpose.
(§2) The drill is energized and the torque applied by the drill turns the tube 10 and the drill bit 11, causing the drill bit 11 and the balance of the tube 10 to bore into the earth. The drilling is continued until all of the perforations in the two perforation sets 12A and 22A are well below the surface of the earth, whereupon the drill is deactivated and disconnected from the shank 23.
(§3) A first of the two helium canisters 33 is then coupled through the flexible conduit 32 and the gas adapter 31 to the valve 28. Valve handle 34 is shifted to a valve open position and helium gas flows from the canister 33, through the valve 28 and into the hollow center 24 (FIG. 2) of the tube 10.
(§4) Once in the tube 10, under the gas pressure supplied by the helium canister 33, the helium gas disperses into soil 36 surrounding the tube 10 through the perforations in the sets 12A and 22A and migrates in the soil 36 to Kudzu vine root 37. […]

[1] = system: Kudzu vines (pueraria lobata); assay: Field trials of helium gas applied to Kudzu vine root systems through a perforated tube; assay type: in vivo
Text: With respect to the helium canister 33, two canisters, each having 0.25 cubic meters of helium gas under a pressure (when full) of at least 260 pounds per square inch (PSI), for a total of 0.5 cubic meters at standard atmospheric pressure and temperature provide a suitable herbicidal effect when the canister 33 (only one of which canisters is shown in the drawing) are applied in sequence in accordance with the invention. […] Naturally, for Kudzu eradication over larger areas, large helium tanks also have been used with great success.
as §1, §2, §3
as §4, with “37. Upon depletion of the helium in the canister 33, the valve handle 34 is shifted to close the valve 28.” for “37.”

Q: With `[He]` [helium] as the compound, how does the “Effect of Kudzu vine treatment on surrounding plant life” value (surrounding plant life) read?
A: The value was “surprisingly beneficial”.

Q: What about the “Kudzu vine herbicidal result” value ([1]; Balloon Time helium canisters, helium purity 94% to 96%, two canisters of 0.25 cubic meters applied in sequence) of the same compound?
A: Its value is “produced the desired Kudzu vine herbicidal result”.

Q: And the “Kudzu destroyed (estimated)” value ([1]; four weeks after exposure to helium, third test site)?
A: Its value is ~95%.

Q: And the Kudzu vines destroyed ([1]; four weeks after exposure to helium, two test sites, about 0.5 cubic meters helium into soil near roots)?
A: Its Kudzu vines destroyed is “all of the Kudzu vines so treated were destroyed”.
